Our source for the IC50 and Ki values is ChEMBL document CHEMBL1134423, “Synthesis and acetylcholinesterase inhibition of 5-desamino huperzine A derivatives” (Bioorg Med Chem Lett, 2001).

Bounds are passed on as bounds.

Assay [1] has as its target T1, Acetylcholinesterase (Rattus norvegicus, UniProt P37136).
T1 sequence (P37136 whole entry): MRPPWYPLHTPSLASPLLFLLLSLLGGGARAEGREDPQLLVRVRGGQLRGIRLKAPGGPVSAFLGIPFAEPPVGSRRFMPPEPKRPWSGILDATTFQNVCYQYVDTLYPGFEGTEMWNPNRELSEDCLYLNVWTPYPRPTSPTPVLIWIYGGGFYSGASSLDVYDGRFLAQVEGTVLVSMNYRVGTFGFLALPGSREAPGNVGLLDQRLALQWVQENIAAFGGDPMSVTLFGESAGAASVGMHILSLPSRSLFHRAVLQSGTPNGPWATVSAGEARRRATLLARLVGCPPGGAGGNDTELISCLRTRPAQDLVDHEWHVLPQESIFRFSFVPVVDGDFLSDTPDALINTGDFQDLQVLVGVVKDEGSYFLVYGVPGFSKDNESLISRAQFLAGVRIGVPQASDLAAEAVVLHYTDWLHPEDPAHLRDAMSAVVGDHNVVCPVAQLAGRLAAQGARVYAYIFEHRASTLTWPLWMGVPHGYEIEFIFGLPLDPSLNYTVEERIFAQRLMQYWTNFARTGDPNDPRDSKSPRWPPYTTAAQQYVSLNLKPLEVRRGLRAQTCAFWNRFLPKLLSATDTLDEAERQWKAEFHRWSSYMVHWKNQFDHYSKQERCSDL
Nature of the assay: Compound was tested for its ability to inhibit acetylcholinesterase (AChE) in rat brain. It counts as tissue-based.

Assay [2] has as its target T1, Acetylcholinesterase.

As a reminder, the IC50 is the concentration at which inhibition is half-maximal. Low readings indicate greater potency, high ones weaker potency. In general, Ki refers to a measure of affinity in units of concentration, obtained from inhibition or displacement. A high value points to a looser hold on the target. With `C/C=C1\C2C=C(C)CC1c1ccc(O)nc1C2` (configuration not stated), at Acetylcholinesterase [1], the IC50 amounted to 12.8 µM and the affinity corresponds to a Ki of 2 µM.

At Acetylcholinesterase [1], `CC1=CC2Cc3nc(O)ccc3C(C1)C2=O` (configuration not stated) returned an IC50 above 500 µM and a Ki above 500 µM.

Regarding `C/C=C1/C2C=C(C)CC1c1ccc(=O)[nH]c1C2` (configuration not stated), on Acetylcholinesterase [1], half-maximal inhibition (IC50) required 55.5 µM and the Ki stood at 12.3 µM.

`C/C=C1\[C@H]2C=C(C)C[C@]1(N)c1ccc(=O)[nH]c1C2` [HUPERZINE A] showed a Ki on Acetylcholinesterase [2] of 0.024 µM.
